Reference: patent US4956179A, “Antibacterial combination of penicillin and cephalosporin” (priority 1971, dated 1990)

Assays:
Format in all cases: cell-based
[1] = test system: clinically isolated coliform bacterium (No. 9/70); assay: M.I.C., serial dilution test (Example 2); settings: coliform No. 9/70; penicillin alone, II alone, 1:1 combination
Experimental: (§1) The in vitro activity of 6-(D-α-aminophenylacetamido) penicillanic acid (I), 6-[(hexahydro-1H-azepin-1-yl)methyleneamino]penicillanic acid (II) and of a combination (III) of equal parts of the two compounds against clinically isolated enterobacteria was determined in a serial dilution test. Tryptose phosphate broth, containing the appropriate concentrations of the compounds or of the combination of them, was inoculated with 0.5×10^4 -5×10^4 organisms of the various micro-organisms tested and incubated overnight at 37° C. Minimum inhibitory concentrations (M.I.C.) were taken as the concentrations of the compounds or of the combination at which no visible growth occurred.
Using the same technique as described in Example 1 the in vitro-activity of 6-[(hexahydro-1H-azepin-1-yl)methyleneamino]penicillanic acid (II), of various penicillins and of 1:1-combinations of II with the respective penicillin was determined against a clinically isolated coliform bacterium (No. 9/70).

[2] = test system: clinically isolated strain of Klebsiella-Enterobacter (strain 4/71); assay: M.I.C., serial dilution test (Example 10); settings: cephalosporin alone, II alone, 1:1 combination
Experimental: as §1
(§2) Using the same technique as described in Example 1 the in vitro activity of 6-[(hexahydro-1H-azepin-1-yl)methyleneamino]penicillanic acid (II), of various cephalosporins previously mentioned in this specification, and of 1:1 combinations of II with these cephalosporins was determined against a clinically isolated strain of Klebsiella-Enterobacter (strain 4/71)

[3] = test system: clinically isolated strain of Proteus (Proteus Mirabilis I 190); assay: M.I.C., serial dilution test (Example 11); settings: cephalosporin alone, II alone, 1:1 combination
Experimental: as §1
as §2, with “cephalosporins” for “cephalosporins previously mentioned in this specification,”, “Proteus (Proteus Mirabilis I 190).” for “Klebsiella-Enterobacter (strain 4/71)”

[4] = test system: Coliform 10/70; assay: M.I.C., serial dilution test in tryptose phosphate broth (Example 1); settings: Coliform strain 10/70; overnight at 37° C; III = equal parts I and II
Experimental: as §1

[5] = test system: Coliform 3/70; assay: as above; settings: Coliform strain 3/70; overnight at 37° C; III = equal parts I and II
Experimental: as §1

[6] = test system: Proteus 12/70; assay: as above; settings: Proteus strain 12/70; overnight at 37° C; III = equal parts I and II
Experimental: as §1

[7] = test system: Proteus 13/70; assay: as above; settings: Proteus strain 13/70; overnight at 37° C; III = equal parts I and II
Experimental: as §1

[8] = test system: Proteus 20/70; assay: as above; settings: Proteus strain 20/70; overnight at 37° C; III = equal parts I and II
Experimental: as §1

[9] = test system: Proteus vulgaris B; assay: as above; settings: overnight at 37° C, III = equal parts I and II
Experimental: as §1

[10] = test system: Coliform 14/70; assay: M.I.C., serial dilution test (Example 4); settings: Coliform strain 14/70; V = equal parts I and IV
Experimental: as §1

[11] = test system: Coliform 16/70; assay: M.I.C., serial dilution test (Example 4); settings: Coliform strain 16/70; V = equal parts I and IV
Experimental: as §1

[12] = test system: Coliform 7/70; assay: M.I.C., serial dilution test (Example 4); settings: Coliform strain 7/70; V = equal parts I and IV
Experimental: as §1

[13] = test system: Klebsiella-Enterobacter. 1/70; assay: M.I.C., serial dilution test (Example 4); settings: Klebsiella-Enterobacter. strain 1/70; V = equal parts I and IV
Experimental: as §1

[14] = test system: Klebsiella-Enterobacter. 10/70; assay: M.I.C., serial dilution test (Example 4); settings: Klebsiella-Enterobacter. strain 10/70; V = equal parts I and IV
Experimental: as §1

[15] = test system: Klebsiella-Enterobacter. 431; assay: M.I.C., serial dilution test (Example 4); settings: Klebsiella-Enterobacter. strain 431; V = equal parts I and IV
Experimental: as §1

[16] = test system: Klebsiella-Enterobacter. 5/70; assay: M.I.C., serial dilution test (Example 4); settings: Klebsiella-Enterobacter. strain 5/70; V = equal parts I and IV
Experimental: as §1

[17] = test system: Klebsiella-Enterobacter. 7/70; assay: M.I.C., serial dilution test (Example 4); settings: Klebsiella-Enterobacter. strain 7/70; V = equal parts I and IV
Experimental: as §1

[18] = test system: Klebsiella-Enterobacter. 9/70; assay: M.I.C., serial dilution test (Example 4); settings: Klebsiella-Enterobacter. strain 9/70; V = equal parts I and IV
Experimental: as §1

[19] = test system: Proteus 10/70; assay: M.I.C., serial dilution test (Example 4); settings: Proteus strain 10/70; V = equal parts I and IV
Experimental: as §1

[20] = test system: Proteus 4/70; assay: M.I.C., serial dilution test (Example 4); settings: Proteus strain 4/70; V = equal parts I and IV
Experimental: as §1

[21] = test system: Proteus 7/70; assay: M.I.C., serial dilution test (Example 4); settings: Proteus strain 7/70; V = equal parts I and IV
Experimental: as §1

[22] = test system: Proteus 9/70; assay: M.I.C., serial dilution test (Example 4); settings: Proteus strain 9/70; V = equal parts I and IV
Experimental: as §1

[23] = test system: clinically isolated coliform; assay: Emergence of resistance, subculturing by serial twofold broth dilution (Example 7); settings: I + II 1:1
Experimental: The strain used was a clinically isolated coliform. As inocula were used bacteria from the tube with the highest concentration of compound still permitting visible growth to the naked eye after incubation at 37° C. overnight.

[24] = test system: Coliforma strain 4; assay: MIC, serial dilution test (Example 9); settings: 1:2 and 2:1 given as I + VII concentrations
Experimental: as §1
(§3) Using the technique described in Example 1 the in vitro effect of combinations of 6-(D-α-aminophenylacetamido)-penicillanic acid (I) and 6-[(N,N-diethylformamidino)-N'-amino]penicillanic acid (VII) in the ratios 1:1, 1:2 and 2:1 against clinically isolated strains of Coliforma, Klebsiella-Enterobacter and Proteus was determined in serial dilution tests.

[25] = test system: Klebsiella-Enterobacter strain 7; assay: MIC, serial dilution test (Example 9); settings: 1:2 and 2:1 given as I + VII concentrations
Experimental: as §1, §3

[26] = test system: Proteus strain 9; assay: MIC, serial dilution test (Example 9); settings: 1:2 and 2:1 given as I + VII concentrations
Experimental: as §1, §3

[27] = test system: Klebsiella-Enterobacter strain 1; assay: MIC, serial dilution test (Example 9); settings: 1:2 and 2:1 given as I + VII concentrations
Experimental: (§4) Tryptose phosphate broth, containing the appropriate concentrations of the compounds or of the combination of them, was inoculated with 0.5×10^4 -5×10^4 organisms of the various micro-organisms tested and incubated overnight at 37° C. Minimum inhibitory concentrations (M.I.C.) were taken as the concentrations of the compounds or of the combination at which no visible growth occurred.

[28] = test system: Klebsiella-Enterobacter strain 5; assay: MIC, serial dilution test (Example 9); settings: 1:2 and 2:1 given as I + VII concentrations
Experimental: as §4

[29] = test system: Coliform 9/70; assay: M.I.C., serial dilution test in tryptose phosphate broth (Example 1); settings: Coliform strain 9/70; overnight at 37° C; III = equal parts I and II
Experimental: as §1

[30] = test system: E.coli III; assay: Emergence of resistance, subculturing by serial twofold broth dilution (Example 6); settings: passage 2; I + IV 1:1
Experimental: Subculturing using a serial twofold broth dilution technique was performed with 6-(D-α-amino-phenylacetamido)-penicillanic acid (I), 6-[(piperidyl-1)methyleneamino]penicillanic acid (IV) and a 1:1 combination of I+IV. As inocula were used bacteria from the tube with the highest concentration of compound still permitting visible growth to the naked eye after incubation at 37° C. overnight. The following increases in MIC-values were noted.

[31] = test system: Coliforma strain 14; assay: MIC, serial dilution test (Example 8); settings: VI + VII equal parts
Experimental: as §1
(§5) Using the technique described in Example 1 the in vitro activity of cephalotin (VI) and 6-[(N,N-diethylformamidino)-N'-amino]penicillanic acid (VII) and of a combination of equal parts of the compounds against clinically isolated strains of Coliforma and Klebsiella-Enterobacter was determined in serial dilution tests.

[32] = test system: Coliforma strain 3; assay: MIC, serial dilution test (Example 8); settings: VI + VII equal parts
Experimental: as §1, §5

[33] = test system: Coliforma strain 7; assay: MIC, serial dilution test (Example 8); settings: VI + VII equal parts
Experimental: as §1, §5

[34] = test system: Klebsiella-Enterobacter strain 5; assay: MIC, serial dilution test (Example 8); settings: VI + VII equal parts
Experimental: as §4

Compound CC1(C)S[C@@H]2[C@H](NC(=O)[C@H](N=[N+]=[N-])c3ccccc3)C(=O)N2[C@H]1C(=O)O [6-(D-α-azidophenylacetamido)penicillanic acid] has a M.I.C. [1] of 50 µg/mL.
With [N-]=[N+]=NCC1=C(C(=O)O)N2C(=O)C(NC(=O)Cc3cccs3)C2SC1 (centres unmarked) [EPC 821/4II] the M.I.C. [2] was 100 µg/mL and the M.I.C. [3] was 12.5 µg/mL.
Work on CC1(C)S[C@@H]2[C@H](NC(=O)[C@H](N)c3ccccc3)C(=O)N2[C@H]1C(=O)O [I, 6-(D-α-aminophenylacetamido)penicillanic acid] yielded a M.I.C. [4] of 3.12 µg/mL, a M.I.C. [5] of 1.56 µg/mL and a M.I.C. [6] of 100 µg/mL. For the same compound, the M.I.C. [7] was 100 µg/mL, the M.I.C. [8] was > 100 µg/mL and the M.I.C. [9] was 50 µg/mL. The M.I.C. [10] was 6.25 µg/mL, the M.I.C. [11] was 3.12 µg/mL and the M.I.C. [12] was 3.12 µg/mL. It also gave a M.I.C. [13] of 50 µg/mL, a M.I.C. [14] of 50 µg/mL and a M.I.C. [15] of 100 µg/mL. For the same compound, the M.I.C. [16] was 100 µg/mL, the M.I.C. [17] was > 100 µg/mL and the M.I.C. [18] was 50 µg/mL. The M.I.C. [19] was 1.56 µg/mL, the M.I.C. [20] was 1.56 µg/mL and the M.I.C. [21] was 1.56 µg/mL. The M.I.C. [22] was 6.25 µg/mL, the MIC ([23]; passage 1) was 3,12 μg/ml and the MIC [24] was 3.12 µg/mL. For the same compound, the MIC [25] was > 100 µg/mL, the MIC [26] was 3.12 µg/mL and the MIC [27] was 50 µg/mL. It also gave an MIC [28] of 100 µg/mL.
CC1(C)S[C@@H]2[C@H](N=CN3CCCCCC3)C(=O)N2[C@H]1C(=O)O [II, 6-[(hexahydro-1H-azepin-1-yl)methyleneamino]penicillanic acid] showed a M.I.C. [5] of 12.5 µg/mL, a M.I.C. [29] of 3.12 µg/mL and an MIC ([23]; passage 0) of 0.39 µg/mL. The MIC ([23]; passage 1) was 6.25 µg/mL, the MIC ([23]; passage 2) was 25 µg/mL and the MIC ([23]; passage 3) was 25 µg/mL. The MIC ([23]; passage 4) was 25 µg/mL, the MIC ([23]; passage 5) was 25 µg/mL and the MIC ([23]; passage 7) was 25 µg/mL. It also gave an MIC ([23]; passage 8) of 25 µg/mL and a M.I.C. [3] of 100 µg/mL.
CC1(C)S[C@@H]2[C@H](N=CN3CCCCC3)C(=O)N2[C@H]1C(=O)O [IV, 6-[(piperidyl-1)-methyleneamino]penicillanic acid] was tested, and the M.I.C. [10] was 3.12 µg/mL, the M.I.C. [11] was 1.56 µg/mL and the M.I.C. [12] was 1.56 µg/mL. It also gave an MIC [30] of 6.25 µg/mL.
In the case of CC(=O)OCC1=C(C(=O)O)N2C(=O)[C@@H](NC(=O)Cc3cccs3)[C@H]2SC1 [VI, cephalotin], the MIC [31] is reported as 12.5 µg/mL, the MIC [32] is reported as 6.25 µg/mL and the MIC [33] is reported as 12.5 µg/mL. The MIC [34] was 25 µg/mL, the M.I.C. [2] was 50 µg/mL and the M.I.C. [3] was 3.12 µg/mL.
CCN(C=N[C@@H]1C(=O)N2[C@@H]1SC(C)(C)[C@@H]2C(=O)O)CC [VII, 6-[(N,N-diethylformamidino)-N'-amino]penicillanic acid] was tested, and the MIC [31] was 12.5 µg/mL, the MIC [32] was 6.25 µg/mL and the MIC [34] was > 100 µg/mL. For the same compound, the MIC [24] was 3.12 µg/mL, the MIC [25] was > 100 µg/mL and the MIC [26] was 100 µg/mL. The MIC [27] was > 100 µg/mL and the MIC [28] was > 100 µg/mL.
With CC1(C)S[C@@H]2[C@H](NC(=O)Cc3ccccc3)C(=O)N2[C@H]1C(=O)O [benzylpenicillin] the M.I.C. [1] was 25 µg/mL.
With CC1(C)S[C@@H]2[C@H](NC(=O)C(C(=O)O)c3ccccc3)C(=O)N2[C@H]1C(=O)O (stereo partly drawn) [α-carboxybenzylpenicillin] the M.I.C. [1] was 12.5 µg/mL.
